# Where two headings read alike, the source gives them in different places.
# Columns and labels:
# [1] = kidney transplant patients, cited from earlier work
# [2] = test system: LEW responder splenocytes with irradiated BN stimulators (lymphocyte proliferation); assay: Mixed lymphocyte reaction (MLR) with spleen cells of treated Lewis rats; type: cell-based, rat; details: Lewis rats 1 mg/kg i.v.; spleens 4 hr after dosing; R:S ratios 0.5:1, 1:1, 5:1
# Protocol: Animals: 8-9 weeks-old Lewis and Brown Norway male rats were obtained from Charles River Laboratories. […] Treatment: Lewis rats were treated with different single doses of LNS 0694i.p. 30 minutes prior to single i.v. injections of tacrolimus at a concentration of 1 mg/kg as described in the table below. Spleens were collected at 4 hr after administration of FK506 for use in the in vitro mixed lymphocyte reaction (MLR) and Con A assays. […] Mixed lymphocyte reactions: A single cell suspension of the spleen of each rat on test (LEW, responder) was prepared with a Dounce homogenizer and wash-medium. The cell suspension was depleted of red blood cells (treatment with NH4CL/Tris buffer) and washed twice with wash medium before resuspending in complete medium (CM; […] A single cell suspension of splenocytes from five Brown Norway rats (BN, stimulators) was prepared with the same method. The BN splenocytes were pooled and irradiated with 1,500-2,000 rad (cesium source) before use. Varying numbers of responder cells were mixed with a constant number of stimulators (105) in 96-well, U-bottom cell culture plates to give a final responder:stimulator (R:S) ratio of 10:1,5: 1, 1:1 and 0.5:1 in 200 μl CM. […] The results of the MLR assays [thymidine incorporation as counts per minute (CPM)] are expressed as mean ±SD.
# [3] = liver transplantation, U.S. study, 12-month post-transplant; cited from earlier work
# [4] = test system: murine or human T cells; details: cited from earlier work
# [5] = cited from earlier work
# [6] = test system: mouse spleen cells, response to LPS; assay: In vitro LPS assay on spleen cells; type: cell-based; details: high ([…]10^6 cells/well) and low (8×10^5 cells/well) cell concentration
# Excerpt: Animals: 8-9 weeks-old Lewis and Brown Norway male rats were obtained from Charles River Laboratories. General procedures for animal care and housing was in accordance with the National Research Council (NRC) Guide for the Care and Use of Laboratory Animals (1996) and the Animal Welfare Standards incorporated in 9 CFR Part 3, 1991.
# Spleens were collected for use in in vitro Con A and LPS assays.
# FIGS. 10 and 11 show the effect of quercetin and tacrolimus on response of mouse spleen cells to LPS at a high (1.6×10^6 cells/well) and low (8×10^5 cells/well) cell concentration, respectively.
# [7] = body surface area corrections, cited from earlier work
# [8] = US heart transplantation study; cited from earlier work
# [9] = cited from earlier work; remark: listed apart in the source
compound,measurement,setting,value
"C=CC[C@@H]1/C=C(\C)C[C@H](C)C[C@H](OC)C2O[C@@](O)(C(=O)C(=O)N3CCCC[C@H]3C(=O)O[C@H](/C(C)=C/[C@@H]3CC[C@@H](O)[C@H](OC)C3)[C@H](C)[C@@H](O)CC1=O)[C@H](C)C[C@@H]2OC (relative stereo) [Prograf, [3S-[3R[E(1S*,3S*,4S*)], 4S*,5R*,8S*,9E,12R*,14R*,15S*,16R*,18S*,19S*,26aR*]]-,6,8,11,12,13,14,15,16,17,18,19,24,25,26,26a-hexadecahydro-5,19-dihydroxy-3-[2-(4-hydroxy-3-methoxycyclohexyl)-1-methylethenyl]-14,16-dimethoxy-4,10,12,18-tetramethyl-8-(2-propenyl)-15,19-epoxy-3H-pyrido[2,1-c][1,4]oxaazacyclotricosine-1,7,20,21 (4H,23H)-tetrone, monohydrate]",Adverse event: Abdominal Pain,[1],33%
same,Adverse event: Anemia,[1],30%
same,Adverse event: Arthralgia,[1],25%
same,Adverse event: Asthenia,[1],34%
same,Adverse event: Back Pain,[1],24%
same,Adverse event: Chest pain,[1],19%
same,Adverse event: Constipation,[1],35%
same,Adverse event: Cough Increased,[1],18%
same,Adverse event: Creatinine Increased,[1],45%
same,Adverse event: Diabetes Mellitus,[1],24%
same,Adverse event: Diarrhea,[1],44%
same,Adverse event: Dizziness,[1],19%
same,Adverse event: Dyspepsia,[1],28%
same,Adverse event: Dyspnea,[1],22%
same,Adverse event: Edema,[1],18%
same,Adverse event: Fever,[1],29%
same,Adverse event: Headache,[1],44%
same,Adverse event: Hyperglycemia,[1],22%
same,Adverse event: Hyperkalemia,[1],31%
same,Adverse event: Hyperlipemia,[1],31%
same,Adverse event: Hypertension,[1],50%
same,Adverse event: Hypokalemia,[1],22%
same,Adverse event: Hypomagnesemia,[1],34%
same,Adverse event: Hypophosphatemia,[1],49%
same,Adverse event: Infection,[1],45%
same,Adverse event: Insomnia,[1],32%
same,Adverse event: Leukopenia,[1],15%
same,Adverse event: Nausea,[1],38%
same,Adverse event: Pain,[1],32%
same,Adverse event: Paresthesia,[1],23%
same,Adverse event: Peripheral Edema,[1],36%
same,Adverse event: Pruritus,[1],15%
same,Adverse event: Rash,[1],17%
same,Adverse event: Urinary Tract Infection,[1],34%
same,Adverse event: Vomiting,[1],29%
same,Adverse event: Tremor,[1]; monohydrate,54%
same,"effect on MLR (lymphocyte proliferation, thymidine incorporation)",[2],inhibited MLR
same,Adverse event: Abdominal Pain,[3],59%
same,Adverse event: Anemia,[3],47%
same,Adverse event: Anorexia,[3],34%
same,Adverse event: Ascites,[3],27%
same,Adverse event: Asthenia,[3],52%
same,Adverse event: Atelectasis,[3],28%
same,Adverse event: BUN Increased,[3],30%
same,Adverse event: Back Pain,[3],30%
same,Adverse event: Constipation,[3],24%
same,Adverse event: Creatinine Increased,[3],39%
same,Adverse event: Diarrhea,[3],72%
same,Adverse event: Dyspnea,[3],29%
same,Adverse event: Fever,[3],48%
same,Adverse event: Headache,[3],64%
same,Adverse event: Hyperglycemia,[3],47%
same,Adverse event: Hyperkalemia,[3],45%
same,Adverse event: Hypertension,[3],47%
same,Adverse event: Hypokalemia,[3],29%
same,Adverse event: Hypomagnesemia,[3],48%
same,Adverse event: Insomnia,[3],64%
same,Adverse event: Kidney Function Abnormal,[3],40%
same,Adverse event: LFT Abnormal,[3],36%
same,Adverse event: Leukocytosis,[3],32%
same,Adverse event: Nausea,[3],46%
same,Adverse event: Oliguria,[3],18%
same,Adverse event: Pain,[3],63%
same,Adverse event: Paresthesia,[3],40%
same,Adverse event: Peripheral Edema,[3],26%
same,Adverse event: Pleural Effusion,[3],30%
same,Adverse event: Pruritus,[3],36%
same,Adverse event: Rash,[3],24%
same,Adverse event: Thrombocytopenia,[3],24%
same,Adverse event: Tremor,[3],56%
same,Adverse event: Urinary Tract Infection,[3],16%
same,Adverse event: Vomiting,[3],27%
same,concentrations inhibiting proliferation of stimulated T cells,"[4]; T cells stimulated by specific antigens, antibodies to TCR/CD3 or mitogenic lectins",subnanomolar
same,potency relative to cyclosporin A (CsA),"[4]; higher potency than CsA, disrupting calcium signaling leading to lymphokine production",50-100 fold
same,"Neurotoxicity, including tremor, headache, and other changes in motor function, mental status, and sensory function","[5]; liver transplant recipients, two randomized studies",approximately 55%
same,proportion of patients reporting more than one adverse event,[5]; two randomized comparative liver transplant trials,99.8%
same,effect on response of spleen cells to LPS (proliferation),[6],inhibited LPS-induced proliferation in a dose dependent manner
same,dose at or above which mortalities were seen,"[7]; adult rats, IV",≥ 16 × the recommended human IV dose
same,dose at or above which mortalities were seen,"[7]; adult rats, oral",≥ 52 × the recommended human oral dose
same,dose at or above which mortalities were seen,"[7]; immature rats, oral",≥ 16 × the recommended oral dose
same,"Other targeted treatment-emergent adverse events (Cushingoid features, impaired wound healing, hyperkalemia, Candida infection, CMV infection/syndrome), rate",[8],less than 15%
same,patients with trough concentrations within the pre-defined target range,"[9]; European heart study, target range 5-15 ng/mL",74-86%
same,Adverse event: Tremor,"[9]; heart transplant patients, European trial",15%

# Source: patent US20080161248A1, “Methods and Compositions for Therapeutic Treatment” (priority 2006, published 2008)
